A word on the residual activity: it is the signal under treatment as a percentage of the control signal.

Test [1] concerns the target Serine/threonine-protein kinase PLK1 (Homo sapiens) (UniProt P53350). In words: Residual activity of PLK1 at 1 uM by microplate scintillation counting.
Test [2] deals with Tyrosine-protein kinase ABL1 (Homo sapiens), P00519 [T315I]. In words: Residual activity of ABL1 T315I mutant at 10 uM by microplate scintillation counting.
Test [3] concerns the target T1, Serine/threonine-protein kinase VRK1 (Homo sapiens) (UniProt Q99986).
T1 sequence (whole entry): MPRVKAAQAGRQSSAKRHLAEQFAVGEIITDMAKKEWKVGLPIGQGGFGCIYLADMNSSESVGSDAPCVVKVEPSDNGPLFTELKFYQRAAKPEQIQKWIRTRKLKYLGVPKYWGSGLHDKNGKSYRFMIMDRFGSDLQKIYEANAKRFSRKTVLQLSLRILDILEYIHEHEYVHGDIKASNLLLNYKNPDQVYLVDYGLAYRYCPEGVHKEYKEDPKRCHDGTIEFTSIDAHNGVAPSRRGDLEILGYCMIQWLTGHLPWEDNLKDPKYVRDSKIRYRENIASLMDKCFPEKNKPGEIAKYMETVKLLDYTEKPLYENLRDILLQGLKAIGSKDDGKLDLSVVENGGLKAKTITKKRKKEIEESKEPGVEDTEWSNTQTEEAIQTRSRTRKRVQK
Description: Residual activity of VRK1 at 0.1 uM by microplate scintillation counting.

The target in test [4] is T2, Serine/threonine-protein kinase D1 (Homo sapiens) (UniProt Q15139).
T2 sequence (whole entry): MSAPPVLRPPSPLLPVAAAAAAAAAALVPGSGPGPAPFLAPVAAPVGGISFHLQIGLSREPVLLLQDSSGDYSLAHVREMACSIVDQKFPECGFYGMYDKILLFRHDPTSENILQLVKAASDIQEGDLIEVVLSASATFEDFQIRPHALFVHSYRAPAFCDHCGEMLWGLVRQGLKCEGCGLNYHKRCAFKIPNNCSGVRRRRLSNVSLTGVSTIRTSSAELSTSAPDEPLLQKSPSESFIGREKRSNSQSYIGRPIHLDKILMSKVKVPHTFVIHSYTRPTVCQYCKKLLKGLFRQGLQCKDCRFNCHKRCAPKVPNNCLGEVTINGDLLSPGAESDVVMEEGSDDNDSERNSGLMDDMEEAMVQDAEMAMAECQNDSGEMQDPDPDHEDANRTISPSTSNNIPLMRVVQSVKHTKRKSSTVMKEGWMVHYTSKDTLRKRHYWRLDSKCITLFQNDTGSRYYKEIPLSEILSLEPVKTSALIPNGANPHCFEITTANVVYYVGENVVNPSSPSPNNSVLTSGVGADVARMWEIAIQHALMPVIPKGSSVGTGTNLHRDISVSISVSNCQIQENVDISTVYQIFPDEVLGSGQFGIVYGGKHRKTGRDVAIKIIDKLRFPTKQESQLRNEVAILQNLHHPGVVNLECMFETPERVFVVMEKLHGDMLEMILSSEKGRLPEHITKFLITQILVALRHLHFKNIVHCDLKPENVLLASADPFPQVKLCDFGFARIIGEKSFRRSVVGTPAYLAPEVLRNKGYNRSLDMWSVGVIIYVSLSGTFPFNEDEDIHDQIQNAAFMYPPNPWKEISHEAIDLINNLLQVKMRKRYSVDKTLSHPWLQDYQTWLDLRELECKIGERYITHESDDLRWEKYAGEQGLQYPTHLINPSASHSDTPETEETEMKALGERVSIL
Description: Residual activity of PKCmu at 10 uM by microplate scintillation counting.

Test [5] has as its target T3, Serine/threonine-protein kinase BRSK1 (Homo sapiens) (UniProt Q8TDC3).
T3 sequence (whole entry): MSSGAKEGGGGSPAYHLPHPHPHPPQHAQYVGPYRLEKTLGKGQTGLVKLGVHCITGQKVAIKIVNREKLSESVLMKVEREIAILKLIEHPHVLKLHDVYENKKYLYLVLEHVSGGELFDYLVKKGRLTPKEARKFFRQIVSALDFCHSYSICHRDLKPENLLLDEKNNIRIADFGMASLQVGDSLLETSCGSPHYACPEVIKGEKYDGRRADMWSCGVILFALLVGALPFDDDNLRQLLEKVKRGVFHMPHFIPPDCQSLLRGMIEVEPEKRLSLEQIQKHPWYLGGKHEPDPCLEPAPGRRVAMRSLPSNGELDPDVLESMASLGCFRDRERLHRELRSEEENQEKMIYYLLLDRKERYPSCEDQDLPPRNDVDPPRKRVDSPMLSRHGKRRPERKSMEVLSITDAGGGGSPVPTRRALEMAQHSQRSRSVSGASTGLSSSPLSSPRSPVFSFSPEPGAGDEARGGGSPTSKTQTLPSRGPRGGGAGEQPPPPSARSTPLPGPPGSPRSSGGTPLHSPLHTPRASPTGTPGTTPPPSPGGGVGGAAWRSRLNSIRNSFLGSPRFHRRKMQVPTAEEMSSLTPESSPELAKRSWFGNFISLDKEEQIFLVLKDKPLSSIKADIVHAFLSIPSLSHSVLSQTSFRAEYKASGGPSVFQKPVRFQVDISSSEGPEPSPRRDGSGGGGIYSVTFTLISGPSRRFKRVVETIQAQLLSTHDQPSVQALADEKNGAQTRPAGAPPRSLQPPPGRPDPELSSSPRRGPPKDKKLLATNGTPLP
Description: Residual activity of BRSK1 at 0.1 uM by microplate scintillation counting.

Test [6] addresses Calcium/calmodulin-dependent protein kinase type II subunit beta (Homo sapiens) (UniProt Q13554). In words: Residual activity of CAMK2B at 0.1 uM by microplate scintillation counting.
For test [7], the target named is Serine/threonine-protein kinase PAK 5 (Homo sapiens) (UniProt Q9P286). In words: Residual activity of PAK7 at 0.1 uM by microplate scintillation counting.
In test [8] the target is T4, Protein kinase C iota type (Homo sapiens) (UniProt P41743).
T4 sequence (whole entry): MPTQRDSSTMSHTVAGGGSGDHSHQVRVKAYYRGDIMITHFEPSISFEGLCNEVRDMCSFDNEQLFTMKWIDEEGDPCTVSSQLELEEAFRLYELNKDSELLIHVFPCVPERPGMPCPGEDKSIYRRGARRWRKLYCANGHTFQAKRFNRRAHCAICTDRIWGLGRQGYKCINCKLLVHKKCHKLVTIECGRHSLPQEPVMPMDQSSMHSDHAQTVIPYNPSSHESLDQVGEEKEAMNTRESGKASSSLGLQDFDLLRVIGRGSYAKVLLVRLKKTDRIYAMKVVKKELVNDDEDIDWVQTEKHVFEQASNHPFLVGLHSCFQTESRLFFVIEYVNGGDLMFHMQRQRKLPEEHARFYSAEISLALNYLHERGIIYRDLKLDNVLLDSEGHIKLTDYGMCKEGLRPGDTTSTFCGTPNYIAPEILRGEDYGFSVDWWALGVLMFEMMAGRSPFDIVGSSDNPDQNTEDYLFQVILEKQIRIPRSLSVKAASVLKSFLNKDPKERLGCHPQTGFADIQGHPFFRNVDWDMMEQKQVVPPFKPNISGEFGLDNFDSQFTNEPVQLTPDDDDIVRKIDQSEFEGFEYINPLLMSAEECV
Description: Residual activity of PKCiota at 0.1 uM by microplate scintillation counting.

Calcium/calmodulin-dependent protein kinase type II subunit beta (Homo sapiens), sequence (Q13554 whole entry): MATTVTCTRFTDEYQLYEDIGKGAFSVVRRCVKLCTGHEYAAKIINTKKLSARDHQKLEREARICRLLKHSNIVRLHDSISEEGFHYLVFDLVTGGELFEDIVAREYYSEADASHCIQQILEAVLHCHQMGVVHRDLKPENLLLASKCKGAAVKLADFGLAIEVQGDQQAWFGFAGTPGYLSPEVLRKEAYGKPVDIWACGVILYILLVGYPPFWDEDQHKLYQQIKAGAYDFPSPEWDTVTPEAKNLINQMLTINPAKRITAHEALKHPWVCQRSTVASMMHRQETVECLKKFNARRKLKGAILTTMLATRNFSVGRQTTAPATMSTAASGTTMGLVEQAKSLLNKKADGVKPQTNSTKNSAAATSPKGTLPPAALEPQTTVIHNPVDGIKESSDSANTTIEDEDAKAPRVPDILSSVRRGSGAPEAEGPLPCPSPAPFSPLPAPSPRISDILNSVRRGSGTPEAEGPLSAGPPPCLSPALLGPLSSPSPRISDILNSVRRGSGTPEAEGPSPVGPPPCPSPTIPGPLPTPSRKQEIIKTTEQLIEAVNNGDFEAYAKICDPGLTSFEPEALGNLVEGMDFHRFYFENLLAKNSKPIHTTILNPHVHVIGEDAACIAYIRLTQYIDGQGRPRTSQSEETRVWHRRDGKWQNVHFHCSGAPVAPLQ
Serine/threonine-protein kinase PLK1 (Homo sapiens), sequence (P53350 whole entry): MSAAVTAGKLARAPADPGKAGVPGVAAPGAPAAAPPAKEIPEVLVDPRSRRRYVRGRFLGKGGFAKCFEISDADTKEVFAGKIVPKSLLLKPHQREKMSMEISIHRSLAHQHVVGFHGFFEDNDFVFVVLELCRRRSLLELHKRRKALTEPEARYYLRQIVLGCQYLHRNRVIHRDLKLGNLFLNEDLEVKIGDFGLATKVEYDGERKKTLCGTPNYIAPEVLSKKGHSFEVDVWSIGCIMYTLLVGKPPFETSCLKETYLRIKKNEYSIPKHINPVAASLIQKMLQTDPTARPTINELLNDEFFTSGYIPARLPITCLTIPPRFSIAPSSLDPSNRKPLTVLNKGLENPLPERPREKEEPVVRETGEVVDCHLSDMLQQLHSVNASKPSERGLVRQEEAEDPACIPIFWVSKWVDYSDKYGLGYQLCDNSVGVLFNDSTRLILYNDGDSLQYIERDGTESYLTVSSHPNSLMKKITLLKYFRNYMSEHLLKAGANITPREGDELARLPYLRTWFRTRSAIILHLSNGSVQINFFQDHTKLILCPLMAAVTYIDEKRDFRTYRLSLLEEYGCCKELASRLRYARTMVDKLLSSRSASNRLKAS
Serine/threonine-protein kinase PAK 5 (Homo sapiens), sequence (Q9P286 whole entry, looked up): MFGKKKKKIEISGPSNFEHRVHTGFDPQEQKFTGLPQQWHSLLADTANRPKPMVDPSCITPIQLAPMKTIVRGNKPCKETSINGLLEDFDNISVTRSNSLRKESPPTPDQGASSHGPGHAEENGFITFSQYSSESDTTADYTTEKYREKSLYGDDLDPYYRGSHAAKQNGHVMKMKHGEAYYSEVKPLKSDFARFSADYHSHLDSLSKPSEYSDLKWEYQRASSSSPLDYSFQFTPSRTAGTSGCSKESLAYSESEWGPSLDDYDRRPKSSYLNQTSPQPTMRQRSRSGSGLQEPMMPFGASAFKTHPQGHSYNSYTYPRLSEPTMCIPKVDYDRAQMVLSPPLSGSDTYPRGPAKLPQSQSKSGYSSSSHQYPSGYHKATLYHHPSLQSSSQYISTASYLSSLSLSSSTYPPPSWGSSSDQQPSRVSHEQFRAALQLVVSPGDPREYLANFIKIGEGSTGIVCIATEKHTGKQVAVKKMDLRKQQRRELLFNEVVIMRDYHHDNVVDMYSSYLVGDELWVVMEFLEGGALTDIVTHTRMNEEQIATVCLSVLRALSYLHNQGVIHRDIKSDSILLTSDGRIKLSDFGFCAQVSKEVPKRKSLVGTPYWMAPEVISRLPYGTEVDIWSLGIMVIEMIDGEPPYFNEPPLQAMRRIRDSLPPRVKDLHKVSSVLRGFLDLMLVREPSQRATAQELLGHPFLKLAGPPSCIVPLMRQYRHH

In the case of `COc1cc2c(Oc3ccc(-c4nc5ccccc5s4)cc3)ncnc2cc1OCCCN1CCCC1`, the residual activity in test [1] was determined as 88%; in test [2], 43%; in test [3] it was 93%; in test [4], 126%; in test [5], 94%; in test [6] it was 73%. Moreover, the figures for the residual activity in test [7] and in test [8] were 92% and 102%, respectively.
For `COc1cc2c(Oc3ccc(-c4nc5ccccc5s4)cc3F)ncnc2cc1OCCCN1CCN(C)CC1`, the residual activity in test [1] was found to be 97%; in test [2], 31%; in test [3], 89%; in test [4], 111%; in test [5], 85%; in test [6], 65%. In addition, the residual activity in test [7] was found to be 84%; in test [8], 87%.
As to `COc1cc2c(Oc3ccc(-c4nc5ccccc5s4)cc3)ncnc2cc1OCCCN1CCN(C)CC1`, the residual activity in test [1] came out at 100%; in test [2] it was 44%; in test [3], 97%; in test [4], 122%; in test [5] it was 95%; in test [6], 100%. The residual activity in test [7] was 80%; in test [8] it was 105%.
